According to ChEMBL document CHEMBL1201862, “PubChem BioAssay data set” (2004):
Each block holds one compound with its values, some of them ahead of it. Active and inactive are the calls of the source.

Tests used:
HEK293 [1] = assay: NOD2 signaling inhibitors in MDP-stimulated cells, cell-based, uHTS, luminescence (AID 2001); format: functional; conditions: Homo sapiens
[2] = target: Nucleotide-binding oligomerization domain-containing protein 1 (Homo sapiens, UniProt Q9Y239); assay: NOD1 signaling inhibitors, SAR follow-up, revised (AID 2333); format: functional
HEK293 [3] = assay: NOD1 signaling inhibitors, primary screen, cell-based, luminescence, uHTS (AID 1578); format: functional; conditions: Homo sapiens
HEK293 [4] = assay: cells; conditions: Homo sapiens
Tumor necrosis factor = Tumor necrosis factor (Homo sapiens, UniProt P01375); assay: TNFa-triggered NF-kB activation inhibitors, SAR follow-up, cell-based, revised (AID 2337); format: functional
Sequence of Tumor necrosis factor (P01375 whole entry): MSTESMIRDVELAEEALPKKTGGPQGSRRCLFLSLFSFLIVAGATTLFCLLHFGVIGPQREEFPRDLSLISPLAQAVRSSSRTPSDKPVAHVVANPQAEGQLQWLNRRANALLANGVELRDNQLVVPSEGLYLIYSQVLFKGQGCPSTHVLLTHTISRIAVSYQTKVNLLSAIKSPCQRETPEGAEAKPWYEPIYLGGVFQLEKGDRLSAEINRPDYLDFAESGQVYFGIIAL

HEK293 [5] = assay: cells; format: functional, cell-based; conditions: Homo sapiens
HEK293 [6] = assay: cells; format: functional, cell-based; conditions: Homo sapiens; remark: listed apart in the source
[7] = target: Sphingosine 1-phosphate receptor 5 (Homo sapiens, UniProt Q9H228); assay: Late stage counterscreen assay for S1P4 antagonists: Fluorescence dose response cell-based screening assay for antagonists of the Sphingosine 1-Phosphate Receptor 5 (S1P5). [Related pubchem assays (depositor defined):AID1510, AID1524, AID1692, AID1853, AID2332, AID489009, AID489017]; format: functional
Sequence of Sphingosine 1-phosphate receptor 5 (Q9H228 whole entry): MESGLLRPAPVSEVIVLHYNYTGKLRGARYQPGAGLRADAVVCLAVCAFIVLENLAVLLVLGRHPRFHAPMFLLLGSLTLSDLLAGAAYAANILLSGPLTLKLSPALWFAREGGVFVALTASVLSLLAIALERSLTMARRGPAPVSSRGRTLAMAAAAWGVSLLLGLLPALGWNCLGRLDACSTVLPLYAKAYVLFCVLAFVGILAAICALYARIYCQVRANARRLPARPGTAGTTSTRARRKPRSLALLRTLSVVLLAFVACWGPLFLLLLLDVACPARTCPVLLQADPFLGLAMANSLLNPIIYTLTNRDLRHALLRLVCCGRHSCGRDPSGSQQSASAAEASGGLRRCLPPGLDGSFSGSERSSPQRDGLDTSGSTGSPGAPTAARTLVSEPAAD

[8] = target: Sphingosine 1-phosphate receptor 3 (Homo sapiens, UniProt Q99500); assay: Late stage counterscreen assay for S1P4 antagonists: Fluorescence dose response cell-based screening assay for antagonists of the Sphingosine 1-Phosphate Receptor 3 (S1P3). [Related pubchem assays (depositor defined):AID1510, AID1524, AID1692, AID1853, AID2332, AID489009, AID489017]; format: functional
Sequence of Sphingosine 1-phosphate receptor 3 (Q99500 whole entry): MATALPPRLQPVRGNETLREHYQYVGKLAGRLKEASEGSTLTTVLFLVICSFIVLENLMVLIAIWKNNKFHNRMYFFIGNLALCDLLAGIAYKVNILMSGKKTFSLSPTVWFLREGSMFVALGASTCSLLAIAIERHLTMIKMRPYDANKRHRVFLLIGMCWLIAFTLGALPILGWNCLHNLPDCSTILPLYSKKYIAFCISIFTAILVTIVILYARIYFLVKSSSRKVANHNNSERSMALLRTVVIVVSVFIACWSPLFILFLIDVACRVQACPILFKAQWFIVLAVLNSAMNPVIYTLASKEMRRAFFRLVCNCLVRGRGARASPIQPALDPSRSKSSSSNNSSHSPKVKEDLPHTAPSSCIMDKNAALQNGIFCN

[9] = target: Voltage-dependent T-type calcium channel subunit alpha-1H (Homo sapiens, UniProt O95180); format: functional;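 note: channel activity triggered by adding a high calcium stimulation buffer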
[10] = target: Sphingosine 1-phosphate receptor 2 (Homo sapiens, UniProt O95136); assay: Late stage counterscreen assay for S1P4 antagonists: Fluorescence dose response cell-based screening assay for antagonists of the Sphingosine 1-Phosphate Receptor 2 (S1P2). [Related pubchem assays (depositor defined):AID1510, AID1524, AID1692, AID1853, AID2332, AID489009, AID489017]; format: functional
Sequence of Sphingosine 1-phosphate receptor 2 (O95136 whole entry): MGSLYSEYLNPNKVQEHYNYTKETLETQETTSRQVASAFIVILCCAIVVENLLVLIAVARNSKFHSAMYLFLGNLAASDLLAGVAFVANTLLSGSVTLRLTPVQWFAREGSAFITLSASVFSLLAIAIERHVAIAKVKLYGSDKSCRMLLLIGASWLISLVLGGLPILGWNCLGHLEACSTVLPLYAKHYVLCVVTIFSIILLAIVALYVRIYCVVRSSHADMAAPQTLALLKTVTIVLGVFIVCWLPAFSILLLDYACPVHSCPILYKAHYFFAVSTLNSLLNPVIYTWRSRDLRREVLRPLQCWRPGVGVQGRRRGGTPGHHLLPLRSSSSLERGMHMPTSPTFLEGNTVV

[11] = target: Sphingosine 1-phosphate receptor 1 (Homo sapiens, UniProt P21453); assay: Late stage counterscreen assay for S1P4 antagonists: Fluorescence dose response cell-based screening assay for antagonists of the Sphingosine 1-Phosphate Receptor 1 (S1P1). [Related pubchem assays (depositor defined):AID1510, AID1524, AID1692, AID1853, AID2332, AID489009, AID489017]; format: functional
[12] = target: T1, Kappa-type opioid receptor (Homo sapiens, UniProt P41145); assay: kappa opioid receptor blockers, cell-based, luminescence, beta-arrestin, SAR follow-up (AID 2285); format: functional
T1 sequence (P41145 whole entry): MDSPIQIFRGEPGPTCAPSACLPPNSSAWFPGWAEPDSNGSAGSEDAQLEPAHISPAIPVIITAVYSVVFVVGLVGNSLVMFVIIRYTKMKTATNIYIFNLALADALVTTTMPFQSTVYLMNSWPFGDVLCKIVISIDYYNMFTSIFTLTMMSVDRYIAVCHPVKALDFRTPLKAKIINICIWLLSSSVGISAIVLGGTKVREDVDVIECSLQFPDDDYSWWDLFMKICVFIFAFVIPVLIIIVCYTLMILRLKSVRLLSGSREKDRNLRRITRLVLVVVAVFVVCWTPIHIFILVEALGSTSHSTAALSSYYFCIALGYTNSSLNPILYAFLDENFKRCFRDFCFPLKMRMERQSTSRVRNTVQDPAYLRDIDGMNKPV

[13] = target: T2, Short transient receptor potential channel 4 (Mus musculus, UniProt Q9QUQ5); assay: mouse TRPC4 channel activators, dose response, cell-based, HEK293 TRPC4/mu-opioid, Fluo-4 calcium (AID 434937); format: functional
T2 sequence (Q9QUQ5 whole entry): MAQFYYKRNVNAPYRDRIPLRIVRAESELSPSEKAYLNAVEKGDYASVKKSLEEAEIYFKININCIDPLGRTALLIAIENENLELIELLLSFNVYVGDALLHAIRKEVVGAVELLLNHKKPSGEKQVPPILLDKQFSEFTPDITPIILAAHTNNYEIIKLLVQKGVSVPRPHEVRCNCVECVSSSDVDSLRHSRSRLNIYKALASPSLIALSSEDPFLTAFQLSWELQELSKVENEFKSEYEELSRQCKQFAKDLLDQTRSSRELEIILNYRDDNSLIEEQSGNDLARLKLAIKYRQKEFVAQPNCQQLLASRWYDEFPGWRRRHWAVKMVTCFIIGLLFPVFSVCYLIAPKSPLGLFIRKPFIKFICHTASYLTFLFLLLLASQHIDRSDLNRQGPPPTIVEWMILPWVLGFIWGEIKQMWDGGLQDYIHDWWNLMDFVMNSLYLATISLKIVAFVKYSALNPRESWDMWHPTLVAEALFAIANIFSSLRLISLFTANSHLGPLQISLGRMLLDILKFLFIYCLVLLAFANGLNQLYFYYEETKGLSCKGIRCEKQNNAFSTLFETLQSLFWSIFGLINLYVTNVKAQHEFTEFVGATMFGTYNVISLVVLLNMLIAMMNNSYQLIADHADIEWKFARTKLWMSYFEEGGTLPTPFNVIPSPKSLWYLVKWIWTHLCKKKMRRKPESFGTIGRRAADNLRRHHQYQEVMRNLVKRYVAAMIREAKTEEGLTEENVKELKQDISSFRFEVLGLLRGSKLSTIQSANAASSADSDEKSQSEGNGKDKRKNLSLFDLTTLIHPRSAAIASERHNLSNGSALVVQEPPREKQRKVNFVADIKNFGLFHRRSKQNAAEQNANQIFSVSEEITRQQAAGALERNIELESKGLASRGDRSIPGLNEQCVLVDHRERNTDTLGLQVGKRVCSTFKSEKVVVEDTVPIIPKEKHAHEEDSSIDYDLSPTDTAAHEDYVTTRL

Mu-type opioid receptor [14] = target: T3, Mu-type opioid receptor (Homo sapiens, UniProt P35372); assay: MOR agonists by imaging, SAR follow-up, image-based (AID 2352); format: functional
T3 sequence (P35372 whole entry): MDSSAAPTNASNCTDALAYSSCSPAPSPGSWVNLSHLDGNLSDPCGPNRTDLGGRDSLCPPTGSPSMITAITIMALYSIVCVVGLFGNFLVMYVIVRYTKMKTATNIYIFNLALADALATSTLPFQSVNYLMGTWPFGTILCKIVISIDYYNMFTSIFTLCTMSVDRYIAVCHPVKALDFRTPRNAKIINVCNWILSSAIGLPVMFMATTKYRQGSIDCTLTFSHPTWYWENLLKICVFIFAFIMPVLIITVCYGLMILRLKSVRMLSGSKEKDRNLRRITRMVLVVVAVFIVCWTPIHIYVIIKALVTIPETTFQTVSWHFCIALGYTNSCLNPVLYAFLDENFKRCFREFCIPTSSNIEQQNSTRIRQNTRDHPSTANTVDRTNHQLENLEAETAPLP

Mu-type opioid receptor [15] = target: T3, Mu-type opioid receptor; assay: MOR antagonists, SAR follow-up, image-based (AID 2420); format: functional;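 note: compounds added before stimulation of receptor with agonist DAMGO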
[16] = target: T4, Delta-type opioid receptor (Homo sapiens, UniProt P41143); assay: DOR agonists, SAR follow-up, image-based (AID 2370); format: functional
T4 sequence (P41143 whole entry): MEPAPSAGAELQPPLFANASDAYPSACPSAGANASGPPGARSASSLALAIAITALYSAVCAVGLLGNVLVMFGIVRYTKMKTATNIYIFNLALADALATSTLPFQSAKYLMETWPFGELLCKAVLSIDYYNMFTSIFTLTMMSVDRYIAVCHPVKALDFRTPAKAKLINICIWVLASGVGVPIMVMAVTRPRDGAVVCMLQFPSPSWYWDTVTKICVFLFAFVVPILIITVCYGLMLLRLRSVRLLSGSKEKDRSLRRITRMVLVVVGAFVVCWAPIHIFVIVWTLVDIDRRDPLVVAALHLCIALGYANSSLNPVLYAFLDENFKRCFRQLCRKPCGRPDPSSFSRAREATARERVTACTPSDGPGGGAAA

[17] = target: T4, Delta-type opioid receptor; assay: DOR antagonists, SAR follow-up, image-based (AID 2357); format: functional
[18] = target: T1, Kappa-type opioid receptor; assay: KOR agonist analogs, imaging readout, SAR follow-up, image-based (AID 2359); format: functional
[19] = target: T1, Kappa-type opioid receptor; assay: KOR antagonists by imaging, SAR follow-up, image-based (AID 2348); format: functional
Ion channel NompC = Ion channel NompC (Danio rerio, UniProt Q7T1G6); assay: Dose response cell-based high-throughput screening assay for agonists of the transient receptor potential channel N1 (TRPN1). [Related pubchem assays (depositor defined):AID1424, AID1448]; format: functional
Mucolipin-3 = target: T5, Mucolipin-3 (Homo sapiens, UniProt Q8TDD5); assay: Fluorescence counterscreen assay for […] agonists: dose response cell-based high-throughput screening assay to identify agonists of the transient receptor potential channel ML3 (TRPML3). [Related pubchem assays: 1424, 1448 ]; format: functional
T5 sequence (Q8TDD5 whole entry): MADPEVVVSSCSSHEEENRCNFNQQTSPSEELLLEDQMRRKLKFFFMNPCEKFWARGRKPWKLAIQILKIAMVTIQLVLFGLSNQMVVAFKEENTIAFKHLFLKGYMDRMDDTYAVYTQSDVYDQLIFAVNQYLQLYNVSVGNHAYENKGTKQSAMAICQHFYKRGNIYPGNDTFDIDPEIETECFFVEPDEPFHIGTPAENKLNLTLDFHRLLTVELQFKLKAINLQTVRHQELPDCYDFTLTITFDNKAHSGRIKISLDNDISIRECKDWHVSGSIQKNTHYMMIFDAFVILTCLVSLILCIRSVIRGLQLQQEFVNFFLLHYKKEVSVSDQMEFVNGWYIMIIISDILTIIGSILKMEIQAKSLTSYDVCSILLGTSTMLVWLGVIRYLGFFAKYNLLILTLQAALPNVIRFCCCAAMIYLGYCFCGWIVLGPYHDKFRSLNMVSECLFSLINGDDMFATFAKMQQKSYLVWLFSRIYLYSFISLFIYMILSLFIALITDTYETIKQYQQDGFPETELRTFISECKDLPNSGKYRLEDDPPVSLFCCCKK

[20] = target: T6, Ubiquitin-conjugating enzyme E2 N (Homo sapiens, UniProt P61088); format: functional
T6 sequence (P61088 whole entry): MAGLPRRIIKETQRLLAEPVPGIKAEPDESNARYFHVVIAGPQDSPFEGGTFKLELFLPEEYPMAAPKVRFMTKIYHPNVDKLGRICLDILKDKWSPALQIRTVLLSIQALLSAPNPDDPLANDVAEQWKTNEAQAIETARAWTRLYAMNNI

Bcl-2-related protein A1 = target: T7, Bcl-2-related protein A1 (Mus musculus, UniProt Q07440); format: functional;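 note: confirmatory dose–response counterscreen on Bfl-1, used to check hits from a UBC13 polyubiquitin inhibitor campaign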
T7 sequence (Q07440 whole entry): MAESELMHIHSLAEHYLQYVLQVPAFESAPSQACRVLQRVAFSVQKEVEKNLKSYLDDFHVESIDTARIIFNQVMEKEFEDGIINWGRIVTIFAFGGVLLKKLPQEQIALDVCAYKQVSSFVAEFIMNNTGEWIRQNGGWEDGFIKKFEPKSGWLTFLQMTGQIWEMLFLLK

[21] = target: T6, Ubiquitin-conjugating enzyme E2 N; format: functional; remark: listed apart in the source
[22] = target: T8, E3 ubiquitin-protein ligase XIAP (Homo sapiens, UniProt P98170); assay: Counter Screen using XIAP-Bir3 for Chemical Antagonists of Bir1/2 domains of IAP-family anti-apoptotic proteins. [Related pubchem assays (depositor defined):AID1018, AID1449, AID1514, AID1638, AID1749, AID1750, AID488957, AID488963]
T8 sequence (P98170 whole entry): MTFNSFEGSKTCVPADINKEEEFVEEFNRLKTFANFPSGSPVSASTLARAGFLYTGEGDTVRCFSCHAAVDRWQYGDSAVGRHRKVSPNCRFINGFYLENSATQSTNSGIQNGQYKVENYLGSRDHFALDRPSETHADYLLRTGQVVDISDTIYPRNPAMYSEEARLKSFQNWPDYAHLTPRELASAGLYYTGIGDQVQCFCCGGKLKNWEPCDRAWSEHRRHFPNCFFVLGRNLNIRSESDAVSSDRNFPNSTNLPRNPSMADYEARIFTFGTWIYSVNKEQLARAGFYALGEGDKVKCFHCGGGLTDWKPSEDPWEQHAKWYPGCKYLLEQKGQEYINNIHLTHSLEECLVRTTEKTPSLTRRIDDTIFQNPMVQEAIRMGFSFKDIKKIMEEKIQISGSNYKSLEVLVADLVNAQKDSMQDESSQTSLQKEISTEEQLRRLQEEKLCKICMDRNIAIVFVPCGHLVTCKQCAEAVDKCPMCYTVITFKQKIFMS

[23] = target: T8, E3 ubiquitin-protein ligase XIAP; assay: XIAP antagonists, biochemical, IAP family, fluorescence polarization (AID 1018); format: functional
[24] = target: T9, Intestinal-type alkaline phosphatase (Homo sapiens, UniProt P09923); assay: Dose Response confirmation of uHTS hits from a small molecule inhibitors of human intestinal alkaline phosphatase via a luminescent assay. [Related pubchem assays (depositor defined):AID2544, AID2574]; format: functional
T9 sequence (P09923 whole entry): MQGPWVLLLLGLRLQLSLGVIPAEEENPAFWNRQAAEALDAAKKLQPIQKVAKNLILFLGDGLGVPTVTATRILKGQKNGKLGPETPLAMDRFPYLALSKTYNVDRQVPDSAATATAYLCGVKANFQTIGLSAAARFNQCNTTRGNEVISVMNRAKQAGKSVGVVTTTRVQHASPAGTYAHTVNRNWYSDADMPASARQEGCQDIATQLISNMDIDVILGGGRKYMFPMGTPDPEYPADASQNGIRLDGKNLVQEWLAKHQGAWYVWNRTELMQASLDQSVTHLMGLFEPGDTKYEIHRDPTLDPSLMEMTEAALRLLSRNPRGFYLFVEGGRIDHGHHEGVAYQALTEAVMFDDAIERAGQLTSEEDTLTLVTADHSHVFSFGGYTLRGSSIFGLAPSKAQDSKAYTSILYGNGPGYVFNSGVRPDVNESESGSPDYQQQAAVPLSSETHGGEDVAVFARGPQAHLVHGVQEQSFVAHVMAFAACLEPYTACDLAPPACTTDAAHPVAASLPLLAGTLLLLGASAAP

[25] = target: T9, Intestinal-type alkaline phosphatase; assay: human intestinal alkaline phosphatase activators, dose response, biochemical, luminescence, uHTS hits (AID 463120); format: functional
Cannabinoid receptor 2 [26] = target: T10, Cannabinoid receptor 2 (Homo sapiens, UniProt P34972); assay: SAR analysis of agonists of the Cannabinoid Receptor 2 using an Image-Based Assay - Set 2. [Related pubchem assays (depositor defined):AID1961, AID1965]; format: functional
T10 sequence (P34972 whole entry): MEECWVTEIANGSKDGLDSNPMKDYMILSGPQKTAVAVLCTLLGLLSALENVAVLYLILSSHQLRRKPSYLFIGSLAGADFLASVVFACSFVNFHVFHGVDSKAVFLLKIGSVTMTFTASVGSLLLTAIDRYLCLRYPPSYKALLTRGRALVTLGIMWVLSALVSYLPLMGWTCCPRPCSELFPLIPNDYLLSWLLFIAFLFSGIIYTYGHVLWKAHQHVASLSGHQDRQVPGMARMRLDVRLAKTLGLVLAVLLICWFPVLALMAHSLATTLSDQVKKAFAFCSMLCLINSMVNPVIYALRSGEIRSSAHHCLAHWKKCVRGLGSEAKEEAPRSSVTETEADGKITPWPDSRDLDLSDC

Cannabinoid receptor 2 [27] = target: T10, Cannabinoid receptor 2; assay: SAR analysis of antagonists of the Cannabinoid Receptor 2 using an Image-Based Assay - Set 2. [Related pubchem assays (depositor defined):AID1961, AID1965]; format: functional
Cannabinoid receptor 1 = Cannabinoid receptor 1 (Homo sapiens, UniProt P21554); assay: SAR analysis of antagonists of the Cannabinoid Receptor 1 using an Image-Based Assay. [Related pubchem assays (depositor defined):AID1961, AID1965]; format: functional
[28] = target: G-protein coupled receptor 55 (Homo sapiens, UniProt Q9Y2T6); assay: SAR analysis of selective Agonists of GPR55 using an Image-Based Assay. [Related pubchem assays (depositor defined):AID1961, AID1965]; format: functional
[29] = target: T1, Kappa-type opioid receptor; assay: SAR analysis of small molecule agonists of the kappa opioid receptor via a luminescent beta-arrestin assay - Set 3. [Related pubchem assays (depositor defined):AID1777, AID1785, AID1786, AID1966, AID2133, AID2136, AID2284, AID2500]; format: functional
[30] = target: Signal transducer and activator of transcription 1-alpha/beta (Homo sapiens, UniProt P42224); assay: STAT3 inhibitors, late-stage profile, late-stage follow-up, cell-based, STAT1 panel, qPCR, cytotoxicity, panel member STAT1 Inhibition (AID 2078)
[31] = target: Signal transducer and activator of transcription 3 (Homo sapiens, UniProt P40763); assay: STAT3 inhibitors, late-stage profile, late-stage follow-up, cell-based, STAT1 panel, qPCR, cytotoxicity, panel member STAT3 Inhibition (AID 2078)
Sequence of Signal transducer and activator of transcription 3 (P40763 whole entry): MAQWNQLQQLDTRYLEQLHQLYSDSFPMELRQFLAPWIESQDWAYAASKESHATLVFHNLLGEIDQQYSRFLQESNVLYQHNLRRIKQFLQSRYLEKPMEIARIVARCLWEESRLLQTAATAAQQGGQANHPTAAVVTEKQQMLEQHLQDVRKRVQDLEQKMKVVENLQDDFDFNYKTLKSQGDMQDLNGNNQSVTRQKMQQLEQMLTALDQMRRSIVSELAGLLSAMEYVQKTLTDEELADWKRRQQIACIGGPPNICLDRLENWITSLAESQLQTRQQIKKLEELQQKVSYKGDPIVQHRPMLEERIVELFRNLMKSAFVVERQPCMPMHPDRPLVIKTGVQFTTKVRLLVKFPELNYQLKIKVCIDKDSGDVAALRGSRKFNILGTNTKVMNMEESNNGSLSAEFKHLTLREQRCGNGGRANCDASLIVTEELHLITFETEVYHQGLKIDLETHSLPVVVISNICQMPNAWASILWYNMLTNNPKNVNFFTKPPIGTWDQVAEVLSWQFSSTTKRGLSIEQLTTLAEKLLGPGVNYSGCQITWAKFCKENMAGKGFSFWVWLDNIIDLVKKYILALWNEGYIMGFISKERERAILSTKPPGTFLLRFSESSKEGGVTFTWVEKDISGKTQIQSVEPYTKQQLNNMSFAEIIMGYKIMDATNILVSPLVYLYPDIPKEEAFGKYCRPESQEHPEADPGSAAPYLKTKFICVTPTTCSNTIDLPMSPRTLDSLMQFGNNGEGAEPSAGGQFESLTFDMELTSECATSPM

SMILES: NC(=O)c1ccc(N2CCN(S(=O)(=O)c3ccccc3)CC2)c([N+](=O)[O-])c1
IC50 (HEK293 [1]): > 20 µM (inactive)
IC50 [2]: 5.86 µM (active)
EC50 (HEK293 [3]): 4.72 µM (active)
IC50 (HEK293 [4]): > 20 µM (inactive)
IC50 (Tumor necrosis factor): > 20 µM (inactive)
IC50 (HEK293 [5]): 16 µM (active)
IC50 (HEK293 [6]): > 20 µM (inactive)

SMILES: COc1cc(OC)c(C(=O)NC2CCCCCC2)cc1OC
EC50 (Ion channel NompC): > 29.9 µM (inactive)
EC50 (Mucolipin-3): > 29.9 µM (not active)

SMILES: NCCCn1c(C(=O)c2cc(Cl)c(N)c(Cl)c2)c2ccccc2[n+]1[O-]
EC50 [13]: 1.88 µM (active)
IC50 [20]: 12.9 µM (active)
IC50 (Bcl-2-related protein A1): > 20 µM (inactive)
IC50 [21]: 5.33 µM (active)

SMILES: CCN(Cc1ccccc1)C(=O)/C=C/c1ccccc1[N+](=O)[O-]
IC50 [22]: > 100 µM (inactive)
IC50 [23]: > 100 µM (not active)

SMILES: c1ccc(CC2CCN(c3ncnc4scc(-c5ccccc5)c34)CC2)cc1
IC50 [30]: > 55.7 µM (inactive)
IC50 [31]: > 55.7 µM (inactive)

The remaining lines, values ahead:

IC50 [7]: 9.62 µM (active)
IC50 [8]: 25.4 µM (inactive)
EC50 [9]: 5.94 µM (active)
IC50 [10]: 14.2 µM (inactive)
IC50 [11]: > 25 µM (inactive)
SMILES: Cc1cccc(C)c1NC(=O)c1ccc(-c2ccc(Cl)cc2Cl)o1

IC50 [12]: 6.72 µM (active)
EC50 [13]: 0.596 µM (active)
EC50 (Mu-type opioid receptor [14]): > 32 µM (inactive)
IC50 (Mu-type opioid receptor [15]): 1.92 µM (active)
EC50 [16]: 1.6 µM (active)
IC50 [17]: > 32 µM (inactive)
EC50 [18]: > 32 µM (inactive)
IC50 [19]: 4.73 µM (active)
SMILES: CC(=O)c1ccc(S(=O)(=O)NCc2ccc(C(=O)NCC(c3ccccc3)N(C)C)cc2)cc1 (configuration not stated)

IC50 [24]: > 100 µM (inactive)
EC50 [25]: > 100 µM (inactive)
SMILES: CC(=O)c1ccc(NC(=O)C2CCCN2S(=O)(=O)c2cccs2)cc1 (configuration not stated)

EC50 (Cannabinoid receptor 2 [26]): > 32 µM (inactive)
IC50 (Cannabinoid receptor 2 [27]): > 32 µM (inactive)
IC50 (Cannabinoid receptor 1): > 32 µM (inactive)
EC50 [28]: 0.658 µM (active)
SMILES: COc1ccc(-c2csc(NC(=O)CSc3nnc4c(C)cc5ccccc5n34)n2)cc1

EC50 [29]: 11.3 µM (inactive)
SMILES: Brc1ccc(CSc2nnc(-c3ccc(Br)cc3)n2Cc2ccco2)cc1
